# Assay results: US12024571B2, “Anti-erythropoietin receptor peptide” (Epo-Med Inc., priority 2018, dated 2024)
# Bridge positions count the residues as written; N and C are the ends. Square brackets hold non-standard residues; d marks the D form. Peptide text beside a SMILES is read from it. * marks the point of attachment. Ala(benzothiazol-2-yl) = N[C@@H](Cc1nc2ccccc2s1)C(=O)O; Phe(3,4-F2) = N[C@@H](Cc1ccc(F)c(F)c1)C(=O)O; Phe(3-Cl) = N[C@@H](Cc1cccc(Cl)c1)C(=O)O; Phe(4-Cl) = N[C@@H](Cc1ccc(Cl)cc1)C(=O)O; Phe(4-F) = N[C@@H](Cc1ccc(F)cc1)C(=O)O; Propionyl = CCC(=O)*
# Legend:
# [1] = system: human pancreatic cancer derived AsPC-1 cells; assay: AsPC-1 cell proliferation, WST assay; type: cell-based; conditions: 72 hours
# Experimental: Human pancreatic cancer derived AsPC-1 cells (ECACC, 96020930) were passaged (twice/week) under the condition of 37° C. and 5% CO2-95% air using an RPMI-1640 medium (Sigma, R8758-500 ML) comprising 10% fetal bovine serum (biowest, S182H-500) and 1 mM sodium pyruvate (gibco, 11360-070). The AsPC-1 cells were collected from a culture dish using 0.05% trypsin-0.02% EDTA solution (Sigma, T4174-100 ML). The cells were suspended in the medium and then seeded on a 96-well microplate (3×10^3/0.05 mL/well). After culturing the cells overnight, a medium comprising the test compounds (total of 43 compounds, final concentration of 150 μM) was added (0.05 mL/well, 3 wells/test compound). After 72 hours, the cell proliferation capability for each well was measured by a WST assay (DOJINDO LABORATORIES, Cell Counting Kit-8), and the inhibition ratio for each test compound against the control (test compound-free well) was calculated.
# A WST assay is a viable cell count measuring method, which uses water-soluble tetrazolium salt WST-8 as a coloring reagent and uses water-soluble formazan generated by reduction of WST-8 as an indicator of viable cell count. NADH produced by a dehydrogenase in a cell converts WST-8 to water-soluble formazan. Since the generated water-soluble formazan has the maximum absorbance at about 450 nm, the viable cell count is indicated by measuring the absorbance at such a wavelength region.
# Human pancreatic cancer derived AsPC-1 cells (ECACC, 96020930) were cultured, collected, and seeded on a 96-well microplate (3×10^3/0.05 mL/well) in the same manner as Example 3. After culturing the cells overnight, a medium comprising the test compounds (10, 30, or 100 μM) was added (0.05 mL/well, 3 wells/test compound). After 72 hours, the cell proliferation capability for each well was measured by a WST assay (DOJINDO LABORATORIES, Cell Counting Kit-8), and the inhibition ratio for each test compound against the control (test compound-free well) was computed.
# [2] = system: human T cell leukemia derived ATL-2 cells; assay: ATL-2 cell proliferation, WST assay; type: cell-based; conditions: 150 μM, 72 hours, FIG. 39
# Experimental: Human T cell leukemia derived ATL-2 cells (provided by Dr. Maeda at the Kyoto University) were passaged (twice/week) under the condition of 37° C. and 5% CO2-95% air using an RPMI-1640 medium (Sigma, R8758-500 mL) comprising 10% fetal bovine serum (biowest, S182H-500). The ATL-2 cells were collected from a culture flask. The cells were suspended in the medium and then seeded on a 96-well microplate (3×10^3/0.05 mL/well). After culturing the cells overnight, a medium comprising the test compounds (total of 32 compounds, final concentration of 150 μM) was added (0.05 mL/well, 3 wells/test compound). After 72 hours, the cell proliferation capability for each well was measured by a WST assay (DOJINDO LABORATORIES, Cell Counting Kit-8), and the inhibition ratio for each test compound against the control (test compound-free well) was calculated.
# [3] = system: human pancreatic cancer derived AsPC-1 cells; assay: Tumor growth in AsPC-1 cancer-bearing nude mouse model; type: in vivo; conditions: intraperitoneal, 3 times daily, total 0.2 mg/day, 3 times a week for 2 weeks; FIG. 40
# Experimental: Human pancreatic cancer derived AsPC-1 cells (ECACC, 96020930) were cultured and collected in the same manner as Example 3, suspended in the RPMI-1640 medium described above comprising 10% Matrigel (BD Bioscience, 354234), and transplanted subcutaneously to the right side on the back of a 6-week-old male nude mouse (SLC, BALB/cSlc-nu/nu) (5×10^6/0.1 mL/mouse). The length (L) and width (W) of the tumor were measured using a digital caliper. When the tumor volume (V) calculated from the formula V=L×W^2/2 reached about 150 to 200 mm^3, the mice were separated into groups and administered with test compounds (total of 8 compounds including GT-11263). Saline was administered to a control group. The compounds were administered intraperitoneally (0.1 mL/mouse, 3 to 5 mice/test compound) 3 times daily (one hour interval, a total of 0.2 mg/day), 3 times a week for 2 weeks. The tumor size and body weight were measured twice a week to monitor the status of tumor growth and the effect of the administration of test compounds.
# In the same manner as Example 5, human pancreatic cancer derived AsPC-1 cells were transplanted subcutaneously to the right side on the back of a 6-week-old male nude mouse (SLC, BALB/cSlc-nu/nu) (5×10^6/0.1 mL/mouse). The length (L) and width (W) of the tumor were measured using a digital caliper. When the tumor volume (V) calculated from the formula V=L×W^2/2 reached about 150 to 200 mm^3, the mice were separated into groups and administered with test compounds (GT-11269, GT-11309, and GT-11350). Saline was administered to a control group. The compounds were administered intraperitoneally (0.1 mL/mouse, 5 mice/test compound) 3 times daily (one hour interval, a total of 0.5 mg/day), twice a week for 4 weeks. The tumor size and body weight were measured twice a week to monitor the effect of the administration of test compounds (FIG. 45).
# (§1) In the same manner as Example 5, human pancreatic cancer derived AsPC-1 cells were transplanted subcutaneously to the right side on the back of a 6-week-old male nude mouse (SLC, BALB/cSlc-nu/nu), and when the tumor volume (V) reached about 150 to 200 mm^3, the mice were separated into groups and administered with test compounds (GT-11350). Saline was administered to a control group. The compounds were administered intraperitoneally (0.1 mL/mouse) 3 times daily (one hour interval, a total of 0.1 mg, 0.2 mg, or 0.4 mg/day), twice a week for 4 weeks. The tumor size and body weight were measured twice a week to monitor the effect of the dose of test compounds (FIG. 49).
# as §1, with “of” for “of 0.1 mg,”, “mg/day)” for “mg,”, “once daily (0.2” for “0.4”, “administration” for “dose”, “compounds.” for “compounds (FIG. 49).”
# [4] = system: human liver cancer derived HepG2 cells; assay: Lethal effect of synthetic peptides on HepG2 cells (Trypan blue positive cell count); type: cell-based; conditions: 120, 60, 30 or 15 μM, 24 hours; FIGS. 34 to 37
# [5] = system: human liver cancer HepG2 cells; assay: Granule leakage of HepG2 cells exposed to peptides, under a microscope; type: cell-based; conditions: HepG2 cells exposed to peptide
# Excerpt: The peptides synthesized above were exposed to human liver cancer HepG2 cells and the leakage of granules under a microscope was studied. […] In view of the above, peptides GT-11258, GT-11261, and GT-11274 were expected to have a relatively strong activity.
Molecule,HepG2 cell killing effect compared with YS12 (Trypan blue positive cells per 1 mm^2) [4],leakage of granules under a microscope [5],further results
"CSCC[C@@H]1NC(=O)[C@@H]2CCCN2C(=O)CNC(=O)[C@H](Cc2ccccc2)NC(=O)[C@H](Cc2c[nH]cn2)NC(=O)[C@@H](NC(=O)[C@H](CO)NC(C)=O)CSSC[C@@H](C(=O)N[C@@H](CCCCN)C(N)=O)NC(=O)[C@H](C(C)C)NC(=O)[C@H](Cc2c[nH]c3ccccc23)NC(=O)[C@H]([C@@H](C)O)NC1=O [GT-11269, Ac-SCHFGPMTWVCK-NH2] (Ac-SCHFGPMTWVCK-NH2; disulfide 2-11)",,,"proliferation inhibiting action against AsPC-1 cells (inhibition ratio against control) ([1]; 10, 30 or 100 μM, FIG. 43): potent proliferation inhibiting action; proliferation inhibiting action on ATL-2 cells (inhibition ratio against control) [2]: potent proliferation inhibiting action; antitumor effect (relative tumor volume) [3]: potent and had an early manifestation of effect"
(propionyl)-SCHFGPLTWVCK-NH2 (Propionyl-SCHFGPLTWVCK-NH2; disulfide 2-11 (inferred)) [GT-11257],,,"proliferation inhibiting action on AsPC-1 cells (inhibition ratio against control) ([1]; 150 μM, FIG. 38): potent proliferation inhibiting action"
"Ac-SCH(3,4-difluoro-Phe)GPLT(2-benzothiazolylalanine)VCK-NH2 (Ac-SCH[Phe(3,4-F2)]GPLT[Ala(benzothiazol-2-yl)]VCK-NH2; disulfide 2-11 (inferred)) [GT-11305]",equivalent or greater than that of YS12,,
"Ac-SCH(3,4-difluoro-Phe)GPLT(2-quinolylalanine)VCK-NH2 [GT-11304]",equivalent or greater than that of YS12,,
"Ac-SCH(3,4-difluoro-Phe)GPLT(8-quinolylalanine)VCK-NH2 [GT-11303]",equivalent or greater than that of YS12,,
Ac-SCH(m-chloro-Phe)GPLTWVCK-NH2 (Ac-SCH[Phe(3-Cl)]GPLTWVCK-NH2; disulfide 2-11 (inferred)) [GT-11260],equivalent or greater than that of YS12,relatively low degree of granule leakage,
Ac-SCH(p-chloro-Phe)GPLTWVCK-NH2 (Ac-SCH[Phe(4-Cl)]GPLTWVCK-NH2; disulfide 2-11 (inferred)) [GT-11259],equivalent or greater than that of YS12,relatively low degree of granule leakage,
Ac-SCH(p-fluoro-Phe)GPLT(2-benzothiazolylalanine)VCK-NH2 [GT-11307],equivalent or greater than that of YS12,,
Ac-SCH(p-fluoro-Phe)GPLT(2-quinolylalanine)VCK-NH2 [GT-11306],equivalent or greater than that of YS12,,
Ac-SCH(p-fluoro-Phe)GPLTWVCK-NH2 (Ac-SCH[Phe(4-F)]GPLTWVCK-NH2; disulfide 2-11 (inferred)) [GT-11258],,significant granule leakage,
Ac-SCH(phenethylglycine)GPLTWVCK-NH2 (Ac-SCH[phenethylglycine]GPLTWVCK-NH2; disulfide 2-11 (inferred)) [GT-11263],,,antitumor effect (relative tumor volume) [3]: potent antitumor effect
Ac-SCHFGPATWVCK-NH2 (disulfide 2-11 (inferred)) [GT-11268],equivalent or greater than that of YS12,,
Ac-SCHFGPLT(8-quinolylalanine)VCK-NH2 (Ac-SCHFGPLT[8‑quinolylalanine]VCK-NH2; disulfide 2-11 (inferred)) [GT-11274],equivalent or greater than that of YS12,significant granule leakage,
Ac-SCHYGPLT(2-quinolylalanine)VCK-NH2 (Ac-SCHYGPLT[2‑quinolylalanine]VCK-NH2; disulfide 2-11 (inferred)) [GT-11308],equivalent or greater than that of YS12,,proliferation inhibiting action on ATL-2 cells (inhibition ratio against control) [2]: potent proliferation inhibiting action
Ac-SCHYGPLTWVCK-NH2 (disulfide 2-11 (inferred)) [GT-11261],equivalent or greater than that of YS12,significant granule leakage,
Ac-kcvwtlGGfhcs-NH2 (Ac-[dK][dC][dV][dW][dT][dL]GG[dF][dH][dC][dS]-NH2; disulfide 2-11 (inferred)) [GT-11280],equivalent or greater than that of YS12,,
